Data taken from patent US8962665B2, “Thiazole and oxazole kinase inhibitors” (AB Science, priority 2010, dated 2015).

Molecular target: T1, Syk (Homo sapiens, UniProt P43405)
T1 construct: SYK kinase was purified as a full length protein in a baculovirus system near homogeneity; made in house; host or cells: baculovirus system
Test: Syk kinase HTRF (Kinease TK) assay
Format: biochemical
Experimental: SYK kinase was purified as a full length protein in a baculovirus system near homogeneity. JAKs kinases (JAK1, JAK2 and JAK3) were purchased either from Invitrogen or from Millipore. All kinases assays were performed with the Kinease TK (tyrosine kinase) HTRF (Homogeneous Time Resolved Fluorescence) assay developed by Cisbio international. […] Reactions were initiated upon introduction of the enzyme and terminated with the addition of one reaction volume (25 μl) of HTRF detection buffer. Plates were incubated for one hour at room temperature and the time resolved Fluorescence resonance energy transfer signal was measured in a Pherastar FS microplate reader (BMG Labtech). All data are the average of triplicate results with a standard deviation<10%.

| SMILES | IC50 [µM] |
| --- | --- |
| Cc1ccnc(Nc2cccc(-c3cnc(-c4cccnc4)s3)n2)c1 [Example 020, (4-Methyl-pyridin-2-yl)-[6-(2-pyridin-3-yl-thiazol-5-yl)-pyridin-2-yl]-amine] | < 1 |
| Cc1ccnc(Nc2cccc(-c3cnc(-c4ccc[nH]c4=O)o3)n2)c1 [Example 045, 3-{5-[6-(4-methyl-pyridin-2-ylamino)-pyridin-2-yl]-oxazol-2-yl}-1H-pyridin-2-one] | < 1 |
| Cc1ccnc(Nc2cccc(-c3cnc(-c4nc5ccccc5o4)o3)n2)c1 [Example 048, [6-(2-benzoxazole-2-yl-oxazol-5-yl)-pyridin-2-yl]-(4-methyl-pyridin-2-yl)-amine] | < 1 |
| Cc1ccnc(Nc2cccc(-c3cnc(-c4ccccc4)s3)n2)c1 [Example 056, (4-Methyl-pyridin-2-yl)-[6-(2-phenyl-thiazol-5-yl)-pyridin-2-yl]-amine] | < 1 |
| Cc1ccnc(Nc2cccc(-c3cnc(-c4c(C)cccc4C)o3)n2)c1 [Example 062, {6-[2-(2,6-Dimethyl-phenyl)-oxazol-5-yl]-pyridin-2-yl}-(4-methyl-pyridin-2-yl)-amine] | 1 to 10 |
| Cc1ccnc(Nc2cccc(-c3cnc(-c4cccc(C#N)c4)s3)n2)c1 [Example 064, 3-{5-[6-(4-Methyl-pyridin-2-ylamino)-pyridin-2-yl]-thiazol-2-yl}-benzonitrile] | 1 to 10 |
| Cc1ccnc(Nc2cccc(-c3cnc(-c4ccc5[nH]ccc5c4)o3)n2)c1 [Example 069, {6-[2-(1H-Indol-5-yl)-oxazol-5-yl]-pyridin-2-yl}-(4-methyl-pyridin-2-yl)-amine] | < 1 |
| Cc1ccnc(Nc2cccc(-c3cnc(-c4ccccn4)s3)n2)c1 [Example 080, (4-Methyl-pyridin-2-yl)-[6-(2-pyridin-2-yl-thiazol-5-yl)-pyridin-2-yl]-amine] | < 1 |
| Cc1ccnc(Nc2cccc(-c3cnc(N4CCOCC4)o3)n2)c1 [Example 099, (4-Methyl-pyridin-2-yl)-[6-(2-morpholin-4-yl-oxazol-5-yl)-pyridin-2-yl]-amine] | < 1 |
| Cc1ccc(Nc2cccc(-c3cnc(-c4ccc5[nH]ccc5c4)o3)n2)nc1 [Example 116, {6-[2-(1H-Indol-5-yl)-oxazol-5-yl]-pyridin-2-yl}-(5-methyl-pyridin-2-yl)-amine] | 1 to 10 |
| Cc1ccc(Nc2cccc(-c3cnc(N4CCNC(=O)C4)o3)n2)nc1 [Example 118, 4-{5-[6-(5-Methyl-pyridin-2-ylamino)-pyridin-2-yl]-oxazol-2-yl}-piperazine-2-one] | < 1 |
| Clc1ccnc(Nc2cccc(-c3cnc(-c4ccsc4)o3)n2)c1 [Example 120, (4-Chloro-pyridin-2-yl)-[6-(2-thiophen-3-yl-oxazol-5-yl)-pyridin-2-yl]-amine] | 1 to 10 |
| O=C1CN(c2ncc(-c3cccc(Nc4cnccn4)n3)o2)CCN1 [Example 140, 4-{5-[6-(Pyrazin-2-ylamino)-pyridin-2-yl]-oxazol-2-yl}-piperazine-2-one] | < 1 |
